According to patent US11365199B2, “Pyrazole compounds as modulators of FSHR and uses thereof” (Merck Patent GmbH, priority 2013, dated 2022):

Biological target: T1, FSHR (Homo sapiens, UniProt P23945)
T1 construct: expressed in transfected cells; host or cells: CHO (Cho-FSHR-LUC-1-1-43)
T1 sequence (P23945 18-695): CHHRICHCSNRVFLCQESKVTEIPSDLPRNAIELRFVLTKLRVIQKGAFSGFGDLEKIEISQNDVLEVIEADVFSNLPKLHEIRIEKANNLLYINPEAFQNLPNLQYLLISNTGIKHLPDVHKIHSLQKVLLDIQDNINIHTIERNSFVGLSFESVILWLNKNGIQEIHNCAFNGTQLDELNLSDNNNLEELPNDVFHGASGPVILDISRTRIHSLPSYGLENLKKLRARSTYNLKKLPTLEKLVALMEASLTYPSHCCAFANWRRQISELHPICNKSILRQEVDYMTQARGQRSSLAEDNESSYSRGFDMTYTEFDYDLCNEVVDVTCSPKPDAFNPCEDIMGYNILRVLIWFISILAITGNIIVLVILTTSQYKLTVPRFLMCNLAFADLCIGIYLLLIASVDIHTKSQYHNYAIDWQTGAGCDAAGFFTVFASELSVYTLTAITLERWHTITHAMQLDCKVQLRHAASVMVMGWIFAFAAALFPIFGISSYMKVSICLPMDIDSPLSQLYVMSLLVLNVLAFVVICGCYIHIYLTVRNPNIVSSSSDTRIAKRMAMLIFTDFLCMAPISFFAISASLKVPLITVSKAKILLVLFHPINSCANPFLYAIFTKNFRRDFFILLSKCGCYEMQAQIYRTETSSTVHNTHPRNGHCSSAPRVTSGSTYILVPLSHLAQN
Assay: EC50 of cyclic AMP production in CHO FSHR cells + EC20 FSH (Assay A)
Assay type: cell-based
Conditions: CHO FSHR cells + EC20 FSH, cAMP HTRF; read-out: Assay A: EC50 of cyclic AMP production
Method: EC50 of Cyclic AMP Production in CHO FSHR Cells+EC20 FSH (Assay A)
2500 Cho-FSHR-LUC-1-1-43 cells were plated per well in 5 μl of phenol red free DMEM/F12+1% FBS. Cells were plated in 384 well, solid white low volume plates (Greiner 784075) by Multidrop. Cells were assayed by adding 100 μl of 2×EC20 FSH/IBMX in DMEM/F12+0.1% BSA) by Multidrop to 2 μl of test compound stamped in 384 well plates (compounds are diluted 1:50). The final FSH concentration was […], and the final IBMX concentration was 200 μM. The compound plate map was as follows: Column 1: 2 μl of DMSO; Column 2: 2 μl of DMSO; Columns 3-12 and 13-24: 2 μl of test compound, diluted 1:4 in 100% DMSO, or 2 μl of FSH, diluted 1:4 in DMEM/F12+0.1% BSA. The starting concentration for FSH was 50 nM (final concentration was 0.5 nM). Furthermore, Column 23 contained 2 μl of EC100 FSH reference (100×) (diluted in DMEM/F12+0.1% BSA) at a final concentration of 0.5 nM, and Column 24 contained 2 μl of 1 mM AS707664/2 reference compound 2. 5 μl of compound+EC20 FSH mixture were transferred to cell plates (1:2 dilution into 5 μl of cell media) The plates were incubated at 37° C. for 1 h. 10 μl of mixed HTRF (CisBio #62AM4PEC) reagents were added per well and incubated at room temperature for 1 h. The plates were read on Envision using the cAMP HTRF—low volume 384 well protocol. The readout was the calculated fluorescence ratio (665 nm/620 nm). Values given in percent (%) indicate the percental effect (response) at a certain concentration of agonist relative to the maximum response of the FSH standard.

Structure (SMILES) | EC50 [nM]
COc1cc2c(cc1-c1cnn(CC(C)C)c1)-c1c(c(C(=O)N3CCOCC3(C)C)nn1-c1ccsc1)CO2 [Compound 192, (3,3-Dimethyl-morpholin-4-yl)-[8-(1-isobutyl-1H-pyrazol-4-yl)-7-methoxy-1-thiophen-3-yl-1,4-dihydro-chromeno[4,3-c]pyrazol-3-yl]-methanone] | < 100
[2H]C([2H])([2H])C(C(=O)c1nn(-c2ccsc2)c2c1COc1cc(OC)c(-c3ccn(C)n3)cc1-2)C1(C)CNC1 (stereo not drawn) [Compound 193] | > 5000
COc1cc2c(cc1-c1ccn(C)c1)-c1c(c(C(=O)NC(C)(CO)CO)nn1-c1ccsc1)CO2 [Compound 179, 7-methoxy-8-(1-methyl-1H-pyrrol-3-yl)-1-thiophen-3-yl-1,4-dihydro-chromeno[4,3-c]pyrazole-3-carboxylic acid (2-hydroxy-1-hydroxymethyl-1-methyl-ethyl)-amide] | 100 to 1000
COc1cc2c(cc1-c1cncnc1)-c1c(c(C(=O)N(C)C(C)(C)C)nn1-c1ccsc1)CO2 [Compound 70, 7-Methoxy-8-pyrimidin-5-yl-1-thiophen-3-yl-1,4-dihydro-chromeno[4,3-c]pyrazole-3-carboxylic acid tert-butyl-methyl-amide] | < 100
COc1cc2c(cc1-c1cn(C)nc1C)-c1c(c(C(=O)N3CCOCC3(C)C)nn1-c1ccsc1)CO2 [Compound 123, (3,3-Dimethyl-morpholin-4-yl)-[8-(1,3-dimethyl-1H-pyrazol-4-yl)-7-methoxy-1-thiophen-3-yl-1,4-dihydro-chromeno[4,3-c]pyrazol-3-yl]-methanone] | < 100
COc1cc2c(cc1C=C(C)C)-c1c(c(C(=O)NC3CCCC(C(=O)OC(C)(C)C)C3)nn1-c1ccsc1)CO2 (stereo not drawn) [Compound 15, 3-{[7-Methoxy-8-(2-methyl-propenyl)-1-thiophen-3-yl-1,4-dihydro-chromeno[4,3-c]pyrazole-3-carbonyl]-amino}-cyclohexanecarboxylic acid tert-butyl ester] | > 5000
COc1cc2c(cc1-c1ccn(C)n1)-c1c(c(C(=O)N3CCCC34COC4)nn1-c1ccsc1)CO2 [Compound 174, [7-Methoxy-8-(1-methyl-1H-pyrazol-3-yl)-1-thiophen-3-yl-1,4-dihydro-chromeno[4,3-c]pyrazol-3-yl]-(2-oxa-5-aza-spiro[3.4]oct-5-yl)-methanone] | 100 to 1000
COc1cc2c(cc1C=C(C)C)-c1c(c(C(=O)N(C)C(C)(C)CO)nn1-c1ccsc1)CO2 [Compound 40, 7-Methoxy-8-(2-methyl-propenyl)-1-thiophen-3-yl-1,4-dihydro-chromeno[4,3-c]pyrazole-3-carboxylic acid (2-hydroxy-1,1-dimethyl-ethyl)-methyl-amide] | < 100
COc1cc2c(cc1-c1cc[nH]n1)-c1c(c(C(=O)N(C)C(C)(C)C)nn1-c1ccsc1)CO2 [Compound 65, 7-Methoxy-8-(1H-pyrazol-3-yl)-1-thiophen-3-yl-1,4-dihydro-chromeno[4,3-c]pyrazole-3-carboxylic acid tert-butyl-methyl-amide] | < 100
COc1cc2c(cc1-c1ccsc1C)-c1c(c(C(=O)N(C)C(C)(C)C)nn1-c1ccsc1)CO2 [Compound 75] | < 100
CCn1nccc1-c1cc2c(cc1OC)OCc1c(C(=O)N3CCOCC3(C)C)nn(-c3ccsc3)c1-2 [Compound 213, (3,3-Dimethyl-morpholin-4-yl)-[8-(2-ethyl-2H-pyrazol-3-yl)-7-methoxy-1-thiophen-3-yl-1,4-dihydro-chromeno[4,3-c]pyrazol-3-yl]-methanone] | < 100
COc1cc2c(cc1-c1c(C)noc1C)-c1c(c(C(=O)N(C)C(C)(C)C)nn1-c1ccsc1)CO2 [Compound 67, 8-(3,5-Dimethyl-isoxazol-4-yl)-7-methoxy-1-thiophen-3-yl-1,4-dihydro-chromeno[4,3-c]pyrazole-3-carboxylic acid tert-butyl-methyl-amide] | < 100
COc1cc2c(cc1-c1sc(C)nc1C)-c1c(c(C(=O)N(C)C(C)(C)C)nn1-c1ccsc1)CO2 [Compound 53, 8-(2,4-Dimethyl-thiazol-5-yl)-7-methoxy-1-thiophen-3-yl-1,4-dihydro-chromeno[4,3-c]pyrazole-3-carboxylic acid tert-butyl-methyl-amide] | < 100
[2H]C([2H])([2H])O[C@H]1CC[C@H](N(C(=O)c2nn(-c3ccsc3)c3c2COc2cc(OC)c(-c4ccn(C)c4)cc2-3)C([2H])([2H])[2H])C1 [Compound 197] | 1000 to 5000
COc1cc2c(cc1-c1ccn(C)c1)-c1c(c(C(=O)N3CCCC3(C)CO)nn1-c1ccsc1)CO2 (stereo not drawn) [Compound 176, (2-Hydroxymethyl-2-methyl-pyrrolidin-1-yl)-[7-methoxy-8-(1-methyl-1H-pyrrol-3-yl)-1-thiophen-3-yl-1,4-dihydro-chromeno[4,3-c]pyrazol-3-yl]-methanone] | < 100
[2H]C([2H])([2H])O[C@H]1CC[C@H](N(C(=O)c2nn(-c3ccsc3)c3c2COc2cc(OC)c(-c4ccn(C)n4)cc2-3)C([2H])([2H])[2H])C1 [Compound 196] | > 5000

Other lines, results leading:

EC50 [nM] | Structure (SMILES)
> 5000 | [2H]C([2H])([2H])OC1CC(N(C(=O)c2nn(-c3ccsc3)c3c2COc2cc(OC)c(-c4ccn(C)c4)cc2-3)C([2H])([2H])[2H])C1 (stereo not drawn) [Compound 142]
< 100 | COc1cc2c(cc1-c1cnn(CCC#N)c1)-c1c(c(C(=O)N3CCOCC3(C)C)nn1-c1ccsc1)CO2 [Compound 190, 3-{4-[3-(3,3-Dimethyl-morpholine-4-carbonyl)-7-methoxy-1-thiophen-3-yl-1,4-dihydro-chromeno[4,3-c]pyrazol-8-yl]-pyrazol-1-yl}-propionitrile]
< 100 | COc1cc2c(cc1-c1ccn(C)n1)-c1c(c(C(=O)O[C@H]3CC[C@H](N)C3)nn1-c1ccsc1)CO2 [Compound 180, 7-Methoxy-8-(1-methyl-1H-pyrazol-3-yl)-1-thiophen-3-yl-1,4-dihydro-chromeno[4,3-c]pyrazole-3-carboxylic Acid (1S,3S)-3-amino-cyclopentyl Ester]
< 100 | COc1cc2c(cc1C1=CCN(C)CC1)-c1c(c(C(=O)N(C)C(C)(C)C)nn1-c1ccsc1)CO2 [Compound 68, 7-Methoxy-8-(1-methyl-1,2,3,6-tetrahydro-pyridin-4-yl)-1-thiophen-3-yl-1,4-dihydro-chromeno[4,3-c]pyrazole-3-carboxylic acid tert-butyl-methyl-amide]
< 100 | [2H]C([2H])([2H])N(C(=O)c1nn(-c2ccsc2)c2c1COc1cc(OC)c(S(=O)(=O)C(C)C)cc1-2)C1(C)COC1 [Compound 199]
100 to 1000 | COc1cc2c(cc1C=C(C)C)-c1c(c(C(=O)N3CCC34COC4)nn1-c1ccsc1)CO2 [Compound 44, [7-Methoxy-8-(2-methyl-propenyl)-1-thiophen-3-yl-1,4-dihydro-chromeno[4,3-c]pyrazol-3-yl]-(6-oxa-1-aza-spiro[3.3]hept-1-yl)-methanone]
> 5000 | COc1cc2c(cc1S(=O)(=O)C(C)C)-c1c(c(C(=O)NC3(CO)COC3)nn1-c1ccsc1)CO2 [Compound 187, 7-Methoxy-8-(propane-2-sulfonyl)-1-thiophen-3-yl-1,4-dihydro-chromeno[4,3-c]pyrazole-3-carboxylic Acid (3-hydroxymethyl-oxetan-3-yl)-amide]
< 100 | COc1cc2c(cc1C=C(C)C)-c1c(c(C(=O)N3CCCC(C(N)=O)CC3)nn1-c1ccsc1)CO2 (stereo not drawn) [Compound 43, 1-[7-methoxy-8-(2-methyl-propenyl)-1-thiophen-3-yl-1,4-dihydro-chromeno[4,3-c]pyrazole-3-carbonyl]-azepane-4-carboxylic Acid Amide]
